# Patent US10512656B2, “Compositions and methods for the treatment of lysosomal storage disorders and disorders characterized by lysosomal dysfunction” (Baylor College of Medicine, priority 2016, dated 2019)
# Key:
# Cln3^Δex7-8 mice = assay: Life span assessment, oral trehalose; assay type: in vivo, mouse
# Method: Cln3^Δex7-8 mice (stock no. 004685; Cln3^tm1.1Mem/J; CD-1 background)^32 were obtained from the Jackson Laboratory. Control (CD-1) and Cln3^Δex7-8 mice were housed 3-4 per cage in a room with a 12-h light/12-h dark cycle. Food and water were provided ad libitum. All mice used in this study were analyzed at 8 and 12 months of age and were littermates produced by crossing heterozygous Cln3^Δex7-8 mice. Only males were used for this analysis. Investigators were blinded when analyzing the data, and no randomization was necessary. No data were excluded from this study.
# Trehalose (Swanson) was dissolved in drinking water to a final concentration of 2% and changed twice a week. Trehalose-containing water was given to Cln3^Δex7-8 and WT mice by spontaneous oral administration starting at 21 days of age and continuing until the day the mice died naturally (life span assessment) or were sacrificed for other studies.
# Akt = Akt activity in HeLa cells, time course immunoblot; assay type: cell-based, human
# Method: FIG. 14. Akt phosphorylates TFEB at Ser467. […] Dashed boxes (upper row) show the location of the higher power inserts (lower row). (b) Subcellular fractionation of HeLa/TFEB cells incubated with the same kinase inhibitors. (c) Multi-alignment of TFEB amino-acid sequences from the following species: Ac, Anolis carolensis; Bt, Bos taurus; Dr, Danio rerio; Fc, Felix catus; Gg, gallus gallus; Hs, Homo sapiens; La, Loxodonta africana; Mm, Mus musculus; Rn, Rattus Norvegicus; Sh, Sarcophilus harrisii; Sp, Strongylocentrotus purpuratus; XI, Xenopus laevis. A consensus logo of Akt phosphorylation sites (generated at weblogo.berkeley.edu/logo.cgi) is aligned with TFEB sequences. Position 467 refers to the human protein sequence. (d) Subcellular localization of TFEB and TFEB(S467A). (e) Expression analysis of lysosomal and autophagy genes in HeLa cells transfected with TFEB or TFEB(S467A). […]
# Brain tissue and cultured cells were collected and lysed in RIPA buffer (50 mM Tris-HCl, ph 7.4, 1% NP40, 0.5% Na-deoxycholate, 0.1% SDS, 150 mM NaCl, 2 mM EDTA and 50 mM NaF) including a cocktail of protease (Roche) and phosphatase (SIGMA) inhibitors. Protein concentrations were measured with the bicinchoninic acid protein assay kit (Pierce, Rockford, Ill.), using bovine serum albumin as standard. […] Western blot images were acquired by LAS 4000 (GE Healthcare) and quantified using ImageJ. […]
# lysosomal genes = assay: Real-time qPCR in primary cortical neuron cultures; assay type: cell-based, mouse; conditions: cortical neurons from WT and Cln3^Δex7-8 embryos, 100 mM trehalose
# Method: Cortical and Hippocampal neurons were prepared from E17.5 and postnatal day 0-1 mice and plated on poly-D-lysine coated six-well plates (BD Biosciences) in Neurobasal medium supplemented with GlutaMAX-I (Invitrogen), B-27 and 1% FBS. At days in vitro (DIV) 4, neurons were treated with 100 mM trehalose. At DIV 8, neurons were collected and RNA extraction was performed.
# Total RNA was extracted from the control and JNCL fibroblasts and from WT and Cln3^Δex7-8 cortical neuron cultures using the RNEasy kit (Qiagen) according to the manufacturer's instructions. Half of the mouse brain was processed for the RNA extraction and one microgram was used for complementary DNA synthesis by QuantiTect Reverse Transcription kit (Qiagen). The primers for PCR with reverse transcription reactions are listed in Table St Quantitative real-time PCR was performed by using iQ SYBR Green Supermix on the CFX96 Touch Real-Time Detection System (Bio-Rad Laboratories). Samples were heated for 3 min at 95° C. and amplified in 39 cycles for 11 s at 95° C., 45 s at 60° C. with last cycle of 10 s at 95° C., 5 s at 65° C. and 5 s at 95° C. Analyses were conducted using CFX manager software (Bio-Rad) and the threshold cycle (CT) was extracted from the PCR amplification plot. Relative gene expression was determined using the ΔΔCT method, normalizing to GAPDH (for human genes) and cyclophilin (for mouse genes). […]
# TFEB = assay: Serum re-stimulation of serum-starved Tsc2-/- cells, TFEB localization; assay type: cell-based, mouse; conditions: preincubation with MK2206
# Method: FIG. 15. Serum stimulation modulates subcellular localization of TFEB by regulating Akt activity. (a) WT and Tsc2^−/− cells were serum starved (16 h), treated with MK2206 in the last two hr of starvation where indicated, and stimulated with dialyzed serum for the last 30 min when indicated. Cell lysates were probed with antibodies as indicated. (b) WT and Tsc2^−/− cells were transiently transfected with TFEB-Flag and treated as in (a) and analyzed by immunofluorescence confocal microscopy. Scale bar is 60 μm.
SMILES,"median survival (Cln3^Δex7-8 mice; Cln3^Δex7-8 mice, 2% trehalose in drinking water from 21 days of age, untreated 454 days) [days]","maximum life span (Cln3^Δex7-8 mice; Cln3^Δex7-8 mice, oral trehalose, untreated 544 days) [days]",increase of maximum life span (Cln3^Δex7-8 mice; treated vs untreated Cln3^Δex7-8 mice) [%],"increase of median survival (Cln3^Δex7-8 mice; treated vs untreated Cln3^Δex7-8 mice, log-rank P=0.00566) [%]",Akt activity (Akt),expression of lysosomal genes (lysosomal genes),TFEB nucleus-to-cytosol translocation on serum re-stimulation (TFEB)
"OC[C@H]1O[C@H](O[C@H]2O[C@H](CO)[C@@H](O)[C@H](O)[C@H]2O)[C@H](O)[C@@H](O)[C@@H]1O [trehalose, a-D-glucopyranosyl a-D-glucopyranoside]",522,699,28,15,inhibited Akt activity,transcriptional activation of lysosomal genes,
"Cl.NC1(c2ccc(-c3nc4ccn5c(=O)[nH]nc5c4cc3-c3ccccc3)cc2)CCC1 [MK2206, 8-[4-(1-aminocyclobutyl)phenyl]-9-phenyl-1,2,4-triazolo[3,4-f][1,6]naphthyridin-3(2H)-one]",,,,,,,prevented
